By EC50 is commonly meant the concentration needed to bring the measured effect to its halfway point.

Experiment [1] has as its target T1, ΔF508-CFTR (Homo sapiens, UniProt P13569, DEL508-508).
T1 construct: host or cells: CFBE41o-, doxycycline-inducible
The experiment is described as follows: CFTR cell surface levels using HRP-tagged ΔF508-CFTR expressing CFBE cells, intrinsic corrector capacity. The experiment is classed as cell-based. Set-up: % Activation: concentration or dose not given beside the values. Particulars: HRP-tagged ΔF508-CFTR expressing CFBE41o- cells, compound alone (intrinsic corrector capacity), 20 hours at 33° C.; for EC50: read-out: EC50. In a few lines:
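Read-out: chemiluminescent HRP activity of ECL4-HRP-tagged ΔF508-CFTR at the cell surface, 15 min substrate in dark. Normalized as 100×(sample−DMSO)/(positive control−DMSO).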

Experiment [2] has as its target T1, ΔF508-CFTR. Description: CFTR cell surface levels using HRP-tagged ΔF508-CFTR expressing CFBE cells, in the presence of a co-corrector. It counts as cell-based. Conditions: HRP-tagged ΔF508-CFTR CFBE cells, in the presence of 3 μM co-corrector; for EC50: read-out: EC50. The method, boiled down:
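Chemiluminescent read-out of surface HRP (15 min, dark) after PBS washes. Activity is normalized as 100×(sample−DMSO)/(3 μM co-corrector alone−DMSO).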

T1 sequence (P13569 with tags, fused parts or gaps DEL508-508): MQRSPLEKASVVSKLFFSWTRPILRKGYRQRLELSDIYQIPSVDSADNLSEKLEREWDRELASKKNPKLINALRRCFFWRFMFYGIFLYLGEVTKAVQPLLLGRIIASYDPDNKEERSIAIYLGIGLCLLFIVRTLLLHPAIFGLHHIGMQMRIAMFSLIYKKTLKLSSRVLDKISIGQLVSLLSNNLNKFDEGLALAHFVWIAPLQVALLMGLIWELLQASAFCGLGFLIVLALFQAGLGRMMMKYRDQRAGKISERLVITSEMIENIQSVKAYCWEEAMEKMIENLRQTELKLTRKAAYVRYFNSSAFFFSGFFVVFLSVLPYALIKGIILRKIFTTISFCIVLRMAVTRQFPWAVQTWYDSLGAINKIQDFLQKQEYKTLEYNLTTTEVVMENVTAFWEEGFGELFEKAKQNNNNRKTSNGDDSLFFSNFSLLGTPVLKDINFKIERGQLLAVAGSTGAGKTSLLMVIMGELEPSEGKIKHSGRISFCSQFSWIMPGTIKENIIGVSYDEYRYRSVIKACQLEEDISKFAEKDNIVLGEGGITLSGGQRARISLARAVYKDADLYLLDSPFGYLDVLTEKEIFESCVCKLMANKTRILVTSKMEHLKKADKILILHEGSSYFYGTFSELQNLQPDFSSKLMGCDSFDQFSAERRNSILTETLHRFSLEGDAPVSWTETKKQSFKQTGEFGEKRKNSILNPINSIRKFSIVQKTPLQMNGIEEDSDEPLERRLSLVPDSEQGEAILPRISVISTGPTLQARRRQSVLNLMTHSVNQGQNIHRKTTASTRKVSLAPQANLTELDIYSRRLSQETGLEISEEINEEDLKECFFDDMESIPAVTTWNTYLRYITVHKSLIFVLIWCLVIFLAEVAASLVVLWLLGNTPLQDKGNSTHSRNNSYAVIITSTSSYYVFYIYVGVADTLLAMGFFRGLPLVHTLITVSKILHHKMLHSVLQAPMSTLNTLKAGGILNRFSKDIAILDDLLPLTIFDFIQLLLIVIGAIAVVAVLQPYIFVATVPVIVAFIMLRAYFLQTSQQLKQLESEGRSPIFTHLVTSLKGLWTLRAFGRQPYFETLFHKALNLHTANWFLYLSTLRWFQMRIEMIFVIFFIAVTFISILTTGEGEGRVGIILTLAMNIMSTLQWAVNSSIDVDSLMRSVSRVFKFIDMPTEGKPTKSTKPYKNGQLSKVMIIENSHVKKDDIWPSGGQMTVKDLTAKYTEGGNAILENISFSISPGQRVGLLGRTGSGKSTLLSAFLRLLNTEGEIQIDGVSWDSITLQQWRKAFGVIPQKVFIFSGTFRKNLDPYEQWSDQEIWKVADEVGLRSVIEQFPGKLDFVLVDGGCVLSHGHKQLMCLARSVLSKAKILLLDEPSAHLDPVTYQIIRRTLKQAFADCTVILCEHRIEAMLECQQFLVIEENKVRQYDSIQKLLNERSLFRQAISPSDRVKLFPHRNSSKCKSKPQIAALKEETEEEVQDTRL

On to `COC[C@@H]1CCCN1C1CCN(S(=O)(=O)NC(=O)c2cc(N3CCC(N4CCOCC4)CC3)c3c(C4CCC4)nn(-c4ccccc4)c3n2)CC1` [Compound 439, 3-cyclobutyl-N-{4-[(2S)-2-(methoxymethyl)pyrrolidin-1-yl]piperidine-1-sulfonyl}-4-[4-(morpholin-4-yl)piperidin-1-yl]-1-phenyl-1H-pyrazolo[3,4-b]pyridine-6-carboxamide], for which, at ΔF508-CFTR [1], the “% Activation” value came to 166.8% and the EC50 came to 550 nM. Also, at ΔF508-CFTR [2], the “% Activation” value is recorded as 374.6% and the EC50 was 381 nM.

In the case of `CC(C)Oc1nn(C2CCCCC2)c2nc(C(=O)NS(=O)(=O)N(C)C)cc(-c3ccc(CN4CCN(C)CC4)cc3)c12` [Compound 442, 1-cyclohexyl-N-(dimethylsulfamoyl)-4-{4-[(4-methylpiperazin-1-yl)methyl]phenyl}-3-[(propan-2-yl)oxy]-1H-pyrazolo[3,4-b]pyridine-6-carboxamide], the “% Activation” value was determined as 146.8% on ΔF508-CFTR [1] and 342% on ΔF508-CFTR [2]. The EC50 at ΔF508-CFTR [1] came to 307 nM; at ΔF508-CFTR [2] it was 1110 nM.

As to `CC(C)Oc1nn(C2CCCCC2)c2nc(C(=O)NS(=O)(=O)N(C)C)cc(-c3ccc(CN4CCCC4)cc3)c12` [Compound 444, 1-cyclohexyl-N-(dimethylsulfamoyl)-3-[(propan-2-yl)oxy]-4-{4-[(pyrrolidin-1-yl)methyl]phenyl}-1H-pyrazolo[3,4-b]pyridine-6-carboxamide], the “% Activation” value is on record as 162.5% at ΔF508-CFTR [1] and 361.3% on ΔF508-CFTR [2]. In addition, the EC50 was determined as 345 nM on ΔF508-CFTR [1] and 235 nM on ΔF508-CFTR [2].

Turning to `CS(=O)(=O)NC(=O)c1cc(N2CCC(N3CCCCC3)CC2)c2c(C3CCC3)nn(-c3ccc(F)cc3)c2n1` [Compound 450, 4-([1,4'-bipiperidin]-1'-yl)-3-cyclobutyl-1-(4-fluorophenyl)-N-(methanesulfonyl)-1H-pyrazolo[3,4-b]pyridine-6-carboxamide], at ΔF508-CFTR [1], the “% Activation” value is given as 253.5% and the EC50 came out at 617 nM. For the same molecule, at ΔF508-CFTR [2], the “% Activation” value was 443.25% and the EC50 came to 246 nM.

Regarding `O=C(NS(=O)(=O)C1CCOC1)c1cc(N2CCC(N3CCCCC3)CC2)c2c(C3CCC3)nn(-c3ccc(F)cc3)c2n1` (stereo not shown) [Compound 451, 4-([1,4'-bipiperidin]-1'-yl)-3-cyclobutyl-1-(4-fluorophenyl)-N-(oxolane-3-sulfonyl)-1H-pyrazolo[3,4-b]pyridine-6-carboxamide], at ΔF508-CFTR [1], the “% Activation” value is reported as 184.1% and the EC50 worked out at 1700 nM. Besides, at ΔF508-CFTR [2], the “% Activation” value was 391% and the EC50 is 2100 nM.

Turning to `O=C(NS(=O)(=O)C1CCOC1)c1cc(N2CCC(CCN3CCOCC3)CC2)c2c(C3CCC3)nn(-c3ccc(F)cc3)c2n1` (stereo not shown) [Compound 452, 3-cyclobutyl-1-(4-fluorophenyl)-4-{4-[2-(morpholin-4-yl)ethyl]piperidin-1-yl}-N-(oxolane-3-sulfonyl)-1H-pyrazolo[3,4-b]pyridine-6-carboxamide], at ΔF508-CFTR [1], the “% Activation” value stood at 239.8% and the EC50 turned out to be 408 nM. At ΔF508-CFTR [2], the “% Activation” value is reported as 478.25% and the 50% effective concentration (EC50) is 942 nM.

In the case of `O=C(NS(=O)(=O)N1CCC(N2CCCCC2)CC1)c1cc(N2CCC(N3CCOCC3)CC2)c2c(C3CCC3)nn(-c3ccccc3)c2n1` [Compound 453, N-([1,4'-bipiperidine]-1'-sulfonyl)-3-cyclobutyl-4-[4-(morpholin-4-yl)piperidin-1-yl]-1-phenyl-1H-pyrazolo[3,4-b]pyridine-6-carboxamide], the “% Activation” value on ΔF508-CFTR [1] is 149.3%; at ΔF508-CFTR [2], 385.1%. For the same molecule, the EC50 came to 403 nM on ΔF508-CFTR [1] and 319 nM at ΔF508-CFTR [2].

These data come from patent US10259810B2, “N-sulfonylated pyrazolo[3,4-b]pyridin-6-carboxamides and method of use” (AbbVie S.à.r.l., priority 2015, dated 2019).
